Measured values as given in patent US10004701B2, “Methods and compositions for treating infection” (UNIVERSITY OF ROCHESTER, priority 2012, dated 2018).
Structures can show the parent of a compound that is named as a salt. Where two headings read alike, the source gives them in different places. Where a SMILES comes first, the peptide text is derived from it. Bridges are numbered along the chain shown (N, C = ends). [ ]: non-standard residue; d: D form. The star is where a group is joined. Ileψ(thiazoline)Cys = CC[C@H](C)[C@H](N)C1=N[C@H](C(=O)*)CS1; dOrn = NCCC[C@@H](N)C(=O)O

Assays:
Test in all cases: AK assay 384-well format, Prestwick library screening
E. cloacae = assay type: cell-based, Enterobacter cloacae; conditions: Enterobacter cloacae, 3 h, 50 μM final drug concentration
[1] = system: A. baumannii strain 98-37-09; assay type: cell-based, Acinetobacter baumannii; conditions: Acinetobacter baumannii, 983709, 3 h, 50 μM final drug concentration
P. aeruginosa = assay type: cell-based, Pseudomonas aeruginosa; conditions: Pseudomonas aeruginosa, 3 h, 50 μM final drug concentration
E. faecium = assay type: cell-based, Enterococcus faecium; conditions: Enterococcus faecium, 3 h, 50 μM final drug concentration
K. pneumoniae = assay type: cell-based, Klebsiella pneumoniae; conditions: Klebsiella pneumoniae, 3 h, 50 μM final drug concentration
[2] = system: S. aureus strain USA300-0114; assay type: cell-based, Staphylococcus aureus; conditions: Staphylococcus aureus, USA300, 3 h, 50 μM final drug concentration
E. coli = assay type: cell-based, Escherichia coli; conditions: Escherichia coli, 3 h, 50 μM final drug concentration
[3] = 384-well format, cutoff for positive-scoring molecules 3-fold increase, read-out: AK-based Prestwick Library Screening Results, E. cloacae (increase in extracellular AK activity)
[4] = 384-well format, cutoff for positive-scoring molecules 3-fold increase, read-out: AK-based Prestwick Library Screening Results, A. baumannii (increase in extracellular AK activity)
[5] = 384-well format, cutoff for positive-scoring molecules 3-fold increase, read-out: AK-based Prestwick Library Screening Results, P. aeruginosa (increase in extracellular AK activity)
[6] = 384-well format, cutoff for positive-scoring molecules 3-fold increase, read-out: AK-based Prestwick Library Screening Results, E. faecium (increase in extracellular AK activity)
[7] = 384-well format, cutoff for positive-scoring molecules 3-fold increase, read-out: AK-based Prestwick Library Screening Results, K. pneumoniae (increase in extracellular AK activity)
[8] = 384-well format, cutoff for positive-scoring molecules 3-fold increase, read-out: AK-based Prestwick Library Screening Results, S. aureus (increase in extracellular AK activity)
[9] = 384-well format, cutoff for positive-scoring molecules 3-fold increase, read-out: AK-based Prestwick Library Screening Results, E. coli (increase in extracellular AK activity)
[10] = planktonic, cutoff for positive-scoring molecules 3-fold increase, read-out: AK-based Prestwick Library Screening Results, E. cloacae (fold increase in extracellular AK activity)
[11] = planktonic, cutoff for positive-scoring molecules 3-fold increase, read-out: AK-based Prestwick Library Screening Results, A. baumannii (fold increase in extracellular AK activity)
[12] = planktonic, cutoff for positive-scoring molecules 3-fold increase, read-out: AK-based Prestwick Library Screening Results, P. aeruginosa (fold increase in extracellular AK activity)
[13] = planktonic, cutoff for positive-scoring molecules 3-fold increase, read-out: AK-based Prestwick Library Screening Results, E. faecium (fold increase in extracellular AK activity)
[14] = planktonic, cutoff for positive-scoring molecules 3-fold increase, read-out: AK-based Prestwick Library Screening Results, K. pneumoniae (fold increase in extracellular AK activity)
[15] = planktonic, cutoff for positive-scoring molecules 3-fold increase, read-out: AK-based Prestwick Library Screening Results, S. aureus (fold increase in extracellular AK activity)
[16] = planktonic, cutoff for positive-scoring molecules 3-fold increase, read-out: AK-based Prestwick Library Screening Results, E. coli (fold increase in extracellular AK activity)
[17] = planktonic E. cloacae, positive cutoff 3-fold increase, read-out: AK-based Prestwick library screening result, E. cloacae (fold increase in extracellular AK activity)
[18] = planktonic A. baumannii, positive cutoff 3-fold increase, read-out: AK-based Prestwick library screening result, A. baumannii (fold increase in extracellular AK activity)
[19] = planktonic P. aeruginosa, positive cutoff 3-fold increase, read-out: AK-based Prestwick library screening result, P. aeruginosa (fold increase in extracellular AK activity)
[20] = planktonic E. faecium, positive cutoff 3-fold increase, read-out: AK-based Prestwick library screening result, E. faecium (fold increase in extracellular AK activity)
[21] = planktonic K. pneumoniae, positive cutoff 3-fold increase, read-out: AK-based Prestwick library screening result, K. pneumoniae (fold increase in extracellular AK activity)
[22] = planktonic S. aureus, positive cutoff 3-fold increase, read-out: AK-based Prestwick library screening result, S. aureus (fold increase in extracellular AK activity)
[23] = planktonic E. coli, positive cutoff 3-fold increase, read-out: AK-based Prestwick library screening result, E. coli (fold increase in extracellular AK activity)
[24] = planktonic E. cloacae, 384-well, […], read-out: AK-based Prestwick Library Screening Results: E. cloacae (increase in extracellular AK activity)
[25] = planktonic A. baumannii, 384-well, […], read-out: AK-based Prestwick Library Screening Results: A. baumannii (increase in extracellular AK activity)
[26] = planktonic P. aeruginosa, 384-well, […], read-out: AK-based Prestwick Library Screening Results: P. aeruginosa (increase in extracellular AK activity)
[27] = planktonic E. faecium, 384-well, […], read-out: AK-based Prestwick Library Screening Results: E. faecium (increase in extracellular AK activity)
[28] = planktonic K. pneumoniae, 384-well, […], read-out: AK-based Prestwick Library Screening Results: K. pneumoniae (increase in extracellular AK activity)
[29] = planktonic S. aureus, 384-well, […], read-out: AK-based Prestwick Library Screening Results: S. aureus (increase in extracellular AK activity)
[30] = planktonic E. coli, 384-well, […], read-out: AK-based Prestwick Library Screening Results: E. coli (increase in extracellular AK activity)

## O=C(C1CCCCC1)N1CC(=O)N2CCc3ccccc3C2C1 (stereo not shown) [Praziquantel]
E. cloacae; [3]
  fold induction at 50 µM: 0.7
[1]; [4]
  fold induction at 50 µM: 0.7
P. aeruginosa; [5]
  fold induction at 50 µM: 0.6
E. faecium; [6]
  fold induction at 50 µM: 1
K. pneumoniae; [7]
  fold induction at 50 µM: 0.6
[2]; [8]
  fold induction at 50 µM: 0.8
E. coli; [9]
  fold induction at 50 µM: 0.9

## COc1cc2nc(N3CCN(C(=O)C4CCCO4)CC3)nc(N)c2cc1OC (stereo not shown) [Terazosin hydrochloride]
E. cloacae; [10]
  fold induction at 50 µM: 1.2
[1]; [11]
  fold induction at 50 µM: 0.7
P. aeruginosa; [12]
  fold induction at 50 µM: 0.6
E. faecium; [13]
  fold induction at 50 µM: 0.8
K. pneumoniae; [14]
  fold induction at 50 µM: 0.7
[2]; [15]
  fold induction at 50 µM: 0.8
E. coli; [16]
  fold induction at 50 µM: 0.8

## OC(c1cc(C(F)(F)F)nc2c(C(F)(F)F)cccc12)C1CCCCN1 (stereo not shown) [Mefloquine hydrochloride]
E. cloacae; [3]
  fold induction at 50 µM: 1.2
[1]; [4]
  fold induction at 50 µM: 2.6
P. aeruginosa; [5]
  fold induction at 50 µM: 1.1
E. faecium; [6]
  fold induction at 50 µM: 1
K. pneumoniae; [7]
  fold induction at 50 µM: 1.3
[2]; [8]
  fold induction at 50 µM: 3.2
E. coli; [9]
  fold induction at 50 µM: 1.3

## CC1(C)NC(=O)N(c2ccc([N+](=O)[O-])c(C(F)(F)F)c2)C1=O [Nilutamide]
E. cloacae; […], read-out: AK-based Prestwick Library Screening Results, E. cloacae (fold increase in extracellular AK activity)
  fold induction at 50 µM: 1.4
[1]; […], read-out: AK-based Prestwick Library Screening Results, A. baumannii (fold increase in extracellular AK activity)
  fold induction at 50 µM: 1.2
P. aeruginosa; […], read-out: AK-based Prestwick Library Screening Results, P. aeruginosa (fold increase in extracellular AK activity)
  fold induction at 50 µM: 1.2
E. faecium; […], read-out: AK-based Prestwick Library Screening Results, E. faecium (fold increase in extracellular AK activity)
  fold induction at 50 µM: 1
K. pneumoniae; […], read-out: AK-based Prestwick Library Screening Results, K. pneumoniae (fold increase in extracellular AK activity)
  fold induction at 50 µM: 1
[2]; […], read-out: AK-based Prestwick Library Screening Results, S. aureus (fold increase in extracellular AK activity)
  fold induction at 50 µM: 1.3
E. coli; […], read-out: AK-based Prestwick Library Screening Results, E. coli (fold increase in extracellular AK activity)
  fold induction at 50 µM: 1.2

## CC1(C)S[C@@H]2[C@H](NC(=O)[C@H](N)c3ccccc3)C(=O)N2[C@H]1C(=O)O [Ampicillin trihydrate]
E. cloacae; [3]
  fold induction at 50 µM: 3.5
[1]; [4]
  fold induction at 50 µM: 1.6
P. aeruginosa; [5]
  fold induction at 50 µM: 0.7
E. faecium; [6]
  fold induction at 50 µM: 1.1
K. pneumoniae; [7]
  fold induction at 50 µM: 0.6
[2]; [8]
  fold induction at 50 µM: 0.5
E. coli; [9]
  fold induction at 50 µM: 12.2

## CN/C(=N/CCSCc1nc[nH]c1C)NC#N [Cimetidine]
E. cloacae; [3]
  fold induction at 50 µM: 1
[1]; [4]
  fold induction at 50 µM: 0.8
P. aeruginosa; [5]
  fold induction at 50 µM: 0.8
E. faecium; [6]
  fold induction at 50 µM: 0.9
K. pneumoniae; [7]
  fold induction at 50 µM: 0.7
[2]; [8]
  fold induction at 50 µM: 0.8
E. coli; [9]
  fold induction at 50 µM: 0.9

## NNCCc1ccccc1 [Phenelzine sulfate]
E. cloacae; [3]
  fold induction at 50 µM: 0.5
[1]; [4]
  fold induction at 50 µM: 0.5
P. aeruginosa; [5]
  fold induction at 50 µM: 0.5
E. faecium; [6]
  fold induction at 50 µM: 0.8
K. pneumoniae; [7]
  fold induction at 50 µM: 0.6
[2]; [8]
  fold induction at 50 µM: 0.5
E. coli; [9]
  fold induction at 50 µM: 0.5

## CCOC(=O)[C@H](CCc1ccccc1)N[C@@H](C)C(=O)N1[C@H](C(=O)O)C[C@@H]2CCC[C@@H]21 [Ramipril]
E. cloacae; [17]
  fold induction at 50 µM: 1.1
[1]; [18]
  fold induction at 50 µM: 1.3
P. aeruginosa; [19]
  fold induction at 50 µM: 1.2
E. faecium; [20]
  fold induction at 50 µM: 1
K. pneumoniae; [21]
  fold induction at 50 µM: 1
[2]; [22]
  fold induction at 50 µM: 1.2
E. coli; [23]
  fold induction at 50 µM: 1.1

## CCN1CCCC1CNC(=O)c1cc(S(N)(=O)=O)ccc1OC (stereo not shown) [Sulpiride]
E. cloacae; [24]
  fold induction at 50 µM: 1.6
[1]; [25]
  fold induction at 50 µM: 1
P. aeruginosa; [26]
  fold induction at 50 µM: 1.1
E. faecium; [27]
  fold induction at 50 µM: 1
K. pneumoniae; [28]
  fold induction at 50 µM: 1
[2]; [29]
  fold induction at 50 µM: 1.1
E. coli; [30]
  fold induction at 50 µM: 1

## CN(C)CCC(c1ccccc1)c1ccccn1 (stereo not shown) [Pheniramine maleate]
E. cloacae; [24]
  fold induction at 50 µM: 1.7
[1]; [25]
  fold induction at 50 µM: 1
P. aeruginosa; [26]
  fold induction at 50 µM: 1
E. faecium; [27]
  fold induction at 50 µM: 1
K. pneumoniae; [28]
  fold induction at 50 µM: 1
[2]; [29]
  fold induction at 50 µM: 1
E. coli; [30]
  fold induction at 50 µM: 1.4

## CCC(=O)[C@@]1(C)[C@H](C)C[C@H]2[C@@H]3CCC4=CC(=O)C=C[C@]4(C)[C@H]3[C@@H](O)C[C@@]21C [Rimexolone]
E. cloacae; [17]
  fold induction at 50 µM: 4.9
[1]; [18]
  fold induction at 50 µM: 0.9
P. aeruginosa; [19]
  fold induction at 50 µM: 1
E. faecium; [20]
  fold induction at 50 µM: 0.9
K. pneumoniae; [21]
  fold induction at 50 µM: 0.8
[2]; [22]
  fold induction at 50 µM: 1.1
E. coli; [23]
  fold induction at 50 µM: 0.9

## C#C[C@]1(O)CC[C@H]2[C@@H]3CCC4=Cc5oncc5C[C@]4(C)[C@H]3CC[C@@]21C [Danazol]
E. cloacae; [3]
  fold induction at 50 µM: 0.9
[1]; [4]
  fold induction at 50 µM: 0.9
P. aeruginosa; [5]
  fold induction at 50 µM: 0.8
E. faecium; [6]
  fold induction at 50 µM: 0.9
K. pneumoniae; [7]
  fold induction at 50 µM: 0.6
[2]; [8]
  fold induction at 50 µM: 0.6
E. coli; [9]
  fold induction at 50 µM: 0.7

## CC[C@H](C)[C@H](N)C1=N[C@H](C(=O)N[C@@H](CC(C)C)C(=O)N[C@H](CCC(=O)O)C(=O)N[C@H](C(=O)N[C@H]2CCCCNC(=O)[C@H](CC(N)=O)NC(=O)[C@@H](CC(=O)O)NC(=O)[C@H](Cc3cnc[nH]3)NC(=O)[C@@H](Cc3ccccc3)NC(=O)[C@H]([C@@H](C)CC)NC(=O)[C@@H](CCCN)NC2=O)[C@@H](C)CC)CS1 [Bacitracin] ({Ileψ(thiazoline)Cys}-L[dE]IK[dOrn]I[dF]H[dD]N; lactam 4-C)
E. cloacae; [10]
  fold induction at 50 µM: 1.2
[1]; [11]
  fold induction at 50 µM: 1.1
P. aeruginosa; [12]
  fold induction at 50 µM: 0.8
E. faecium; [13]
  fold induction at 50 µM: 1.3
K. pneumoniae; [14]
  fold induction at 50 µM: 0.8
[2]; [15]
  fold induction at 50 µM: 0.4
E. coli; [16]
  fold induction at 50 µM: 1
